Experimental data from article PMC12715762, “Discovery of VU6052254: A Novel, Potent M1 Positive Allosteric Modulator” (ACS Chemical Neuroscience, 2025).
Where a chain is given by its changes, count along the chain named. ≈ marks a conversion by molar mass, not a printed value. Where “and” joins values, the source holds several entries; their conditions need not be identical. Identical values can stand only once.

What was measured:
human M1 = molecular target: T1, human M1 (Homo sapiens, UniProt P11229); assay: M1 PAM calcium mobilization assay (human); format: cell-based; conditions: for hM1 PAM AChmax (%): human M1, % ACh max, n = 9
T1 sequence (P11229 1-460): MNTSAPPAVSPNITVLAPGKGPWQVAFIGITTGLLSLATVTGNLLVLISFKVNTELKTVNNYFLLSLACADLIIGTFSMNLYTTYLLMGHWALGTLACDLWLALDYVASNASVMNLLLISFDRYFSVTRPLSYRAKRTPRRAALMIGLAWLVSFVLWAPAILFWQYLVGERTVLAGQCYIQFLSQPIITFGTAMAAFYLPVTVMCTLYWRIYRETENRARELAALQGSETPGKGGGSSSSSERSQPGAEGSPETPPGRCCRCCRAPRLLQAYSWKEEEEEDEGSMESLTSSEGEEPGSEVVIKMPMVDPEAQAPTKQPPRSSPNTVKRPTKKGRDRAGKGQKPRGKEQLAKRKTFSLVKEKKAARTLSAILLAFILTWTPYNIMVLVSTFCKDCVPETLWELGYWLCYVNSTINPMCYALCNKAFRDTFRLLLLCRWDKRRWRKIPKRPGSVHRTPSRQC
Procedure: Procedures for Biological Experiments
Calcium mobilization assays:
All functional cell-based assays were performed in stable Chinese Hamster Ovary (CHO) cell lines constitutively expressing human M5 or human M1 receptors. For full muscarinic selectivity, CHO cells expressing human M3, human M2 plus Gqi5 or human M4 plus Gqi5 were used. Cells were plated at 15,000 cells per 20 µL per well in black 384-well, TC-treated, clear-bottomed plates (Greiner) in Ham’s F12 medium supplemented with 10% FBS and 20 mM HEPES. Cells were incubated overnight at 37 °C under 5% CO2. The following day, the medium was removed and replaced with 1.2 µM Fluo-4 AM (Invitrogen) in assay buffer (Hank’s Balanced Salt Solution supplemented with 20 mM HEPES and 2.5 mM Probenecid, pH 7.4) and the cells were incubated for 50 minutes at 37 °C under 5% CO2. Dye was then removed and replaced with 20 µL of fresh assay buffer. Test compounds at a 10 mM concentration in DMSO were serially diluted in DMSO (either 1:3 or 1:5 dilution) to create a 10-point concentration series. The DMSO solutions were then diluted in assay buffer resulting in compound solutions at 2-times the final assay concentration with the highest assay concentration of 30 µM. The compound plate, cell plate, and plates containing EC20 and EC80 acetylcholine concentrations were placed in a Hamamatsu FDSS 6000 or 7000 kinetic imaging plate reader equipped to measure Ex480/Em540 fluorescence. Data were collected at 1 frame per second. After 2 seconds of collecting baseline fluorescence, 20 µL of the compound solutions were added to the cell plate. This was followed by the addition of an EC20 concentration of acetylcholine at 142 seconds. […] The fluorescence signal was collected for a total of 300 seconds. […] Data were imported and analyzed in Dotmatics Informatics software. by normalizing all data in the individual kinetic traces to the initial fluorescence read. The magnitude of each agonist addition was then determined and normalized to the average maximum response. […] The IC50 determined using the EC80 of acetylcholine is the value reported. […]

rM2-5 = assay: muscarinic selectivity calcium mobilization (rat M2-5); format: cell-based
mM1 = molecular target: T2, mM1 (Mus musculus, UniProt P12657); assay: M1 PAM calcium mobilization assay (mouse); format: cell-based; conditions: mouse M1, n = 1
T2 construct: expressed in transfected cells
T2 sequence (P12657 1-460): T1 sequence (P11229 1-460) with A5V, T254S, R320K, A337G, I413V

MDCK-MDR1 (P-gp) = molecular target: T3, MDCK-MDR1 (P-gp) (Homo sapiens, UniProt P08183); assay: MDCK-MDR1 permeability and efflux; format: in vitro ADME; parameters: Papp at 2 h / efflux ratio at 2 h: dose or concentration left out as unconfirmed; conditions: MDCK-MDR1
T3 construct: host or cells: MDR1-MDCK cell monolayers
T3 sequence (P08183 whole entry): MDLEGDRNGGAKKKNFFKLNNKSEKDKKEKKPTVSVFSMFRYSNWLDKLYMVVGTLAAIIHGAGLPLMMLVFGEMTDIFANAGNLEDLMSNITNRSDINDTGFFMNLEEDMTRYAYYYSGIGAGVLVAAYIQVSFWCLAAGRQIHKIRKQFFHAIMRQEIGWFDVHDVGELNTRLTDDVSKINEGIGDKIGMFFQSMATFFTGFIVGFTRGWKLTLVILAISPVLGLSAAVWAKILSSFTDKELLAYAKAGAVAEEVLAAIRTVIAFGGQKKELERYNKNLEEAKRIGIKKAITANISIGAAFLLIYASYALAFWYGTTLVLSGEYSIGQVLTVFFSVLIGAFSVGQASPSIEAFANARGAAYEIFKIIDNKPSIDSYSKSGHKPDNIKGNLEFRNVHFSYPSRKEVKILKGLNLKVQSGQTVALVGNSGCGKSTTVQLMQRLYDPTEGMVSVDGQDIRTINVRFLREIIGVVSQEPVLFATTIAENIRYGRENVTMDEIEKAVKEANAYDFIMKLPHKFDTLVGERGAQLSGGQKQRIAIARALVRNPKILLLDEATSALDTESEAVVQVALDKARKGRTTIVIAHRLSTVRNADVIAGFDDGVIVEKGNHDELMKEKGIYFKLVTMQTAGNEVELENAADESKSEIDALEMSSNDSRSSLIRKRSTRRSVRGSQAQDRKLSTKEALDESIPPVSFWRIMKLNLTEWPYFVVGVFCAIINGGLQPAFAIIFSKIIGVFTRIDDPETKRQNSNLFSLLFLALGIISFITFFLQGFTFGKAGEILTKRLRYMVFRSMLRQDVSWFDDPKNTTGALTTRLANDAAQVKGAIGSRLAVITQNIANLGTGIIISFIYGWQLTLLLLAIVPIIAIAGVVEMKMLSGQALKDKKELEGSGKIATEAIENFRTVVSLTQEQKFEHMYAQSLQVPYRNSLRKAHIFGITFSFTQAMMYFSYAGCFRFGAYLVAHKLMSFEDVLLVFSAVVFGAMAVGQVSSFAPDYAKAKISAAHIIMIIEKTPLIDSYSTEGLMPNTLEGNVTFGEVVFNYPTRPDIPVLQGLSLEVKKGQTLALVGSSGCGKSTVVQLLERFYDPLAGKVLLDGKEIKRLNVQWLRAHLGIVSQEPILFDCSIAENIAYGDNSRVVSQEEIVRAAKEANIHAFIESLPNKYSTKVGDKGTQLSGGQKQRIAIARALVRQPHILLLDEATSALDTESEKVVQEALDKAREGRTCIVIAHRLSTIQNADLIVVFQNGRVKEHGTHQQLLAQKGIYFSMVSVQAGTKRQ
Procedure: (§1) min, with an isocratic hold for 0.5 min, before transitioning to 10% B over 0.05 min. The column was re-equilibrated (1 min) before the next sample injection. The total run time was 2.55 min, and the HPLC flow rate was 0.5 ml/min. The source temperature was set at 500 °C, and mass spectral analyses were performed using a Turbo-Ion spray source in positive ionization mode (5.0-kV spray voltage) and using multiple-reaction monitoring of transitions specific for the analytes. All data were analyzed using AB Sciex Analyst 1.5.1 software. […]
(§2) In-vitro determination of blood-brain barrier penetration potential
(§3) Blood-brain barrier penetration was determined using MDR1-MDCK cell monolayers by Absorption Systems, following their protocol. In short, compounds were incubated at […] final concentration on one side of the cell monolayer for 2 hours. Compounds concentration on either side of the monolayer was determined by LC-MS/MS and apparent permeability and efflux ratio

P-gp (MDR1) = molecular target: T4, P-gp (MDR1) (Homo sapiens, UniProt P08183); assay: MDCK-MDR1 permeability and efflux; format: in vitro ADME; parameters: Papp at 2 h / efflux ratio at 2 h: dose or concentration left out as unconfirmed; conditions: dog; for efflux ratio at 2 h: MDCK-MDR1 efflux ratio, read-out: P-gp ER
T4 construct: host or cells: MDR1-MDCK cell monolayers
T4 sequence (P08183 whole entry): as above
Procedure: as §1, §2, §3

[1] = solubility in simulated intestinal fluid (FaSSIF); format: physicochemical

Row | Compound | hM1 PAM AChmax (%) (human M1) | EC50 (rM2-5) [nM] | EC50 (mM1) [nM] | mM1 PAM, percentage in brackets (AChmax) (mM1) [%] | Papp (MDCK-MDR1 (P-gp)) [×10⁻⁶ cm/s] | efflux ratio at 2 h (P-gp (MDR1)) | solubility [1] [µg/mL] | EC50 (human M1; human M1, n = 9, read-out: hM1 PAM EC50) [nM] | Papp at 2 h (P-gp (MDR1); MDCK-MDR1, MDCK-MDR1) [×10⁻⁶ cm/s]
1 | Cn1cc2c(-c3cc(F)c(CN4Cc5ncccc5C4=O)c(F)c3)cccc2n1 [compound 1, reference compound] | 71% | > 30000 | 728 | 56 | 31 | 1.6 | 7 (≈ 17.9 µM) |  | 
2 | Cn1cc2c(-c3cc(F)c(CN4Cc5ncccc5C4=O)c(F)c3)ccc(C(C)(C)O)c2n1 [compound 7] | 78% and 80% | > 30000 | 80 | 63 | 23.1 | 1.97 | 11 (≈ 24.5 µM) | 59 | 23
